From paper PMC13267069 (npj Drug Discovery, 2025)

Target: CFTR (Homo sapiens, UniProt P13569, G551D)
Assay: Ussing chamber short-circuit current, FRT cells
Type: cell-based

Chain of CFTR (P13569 whole entry G551D): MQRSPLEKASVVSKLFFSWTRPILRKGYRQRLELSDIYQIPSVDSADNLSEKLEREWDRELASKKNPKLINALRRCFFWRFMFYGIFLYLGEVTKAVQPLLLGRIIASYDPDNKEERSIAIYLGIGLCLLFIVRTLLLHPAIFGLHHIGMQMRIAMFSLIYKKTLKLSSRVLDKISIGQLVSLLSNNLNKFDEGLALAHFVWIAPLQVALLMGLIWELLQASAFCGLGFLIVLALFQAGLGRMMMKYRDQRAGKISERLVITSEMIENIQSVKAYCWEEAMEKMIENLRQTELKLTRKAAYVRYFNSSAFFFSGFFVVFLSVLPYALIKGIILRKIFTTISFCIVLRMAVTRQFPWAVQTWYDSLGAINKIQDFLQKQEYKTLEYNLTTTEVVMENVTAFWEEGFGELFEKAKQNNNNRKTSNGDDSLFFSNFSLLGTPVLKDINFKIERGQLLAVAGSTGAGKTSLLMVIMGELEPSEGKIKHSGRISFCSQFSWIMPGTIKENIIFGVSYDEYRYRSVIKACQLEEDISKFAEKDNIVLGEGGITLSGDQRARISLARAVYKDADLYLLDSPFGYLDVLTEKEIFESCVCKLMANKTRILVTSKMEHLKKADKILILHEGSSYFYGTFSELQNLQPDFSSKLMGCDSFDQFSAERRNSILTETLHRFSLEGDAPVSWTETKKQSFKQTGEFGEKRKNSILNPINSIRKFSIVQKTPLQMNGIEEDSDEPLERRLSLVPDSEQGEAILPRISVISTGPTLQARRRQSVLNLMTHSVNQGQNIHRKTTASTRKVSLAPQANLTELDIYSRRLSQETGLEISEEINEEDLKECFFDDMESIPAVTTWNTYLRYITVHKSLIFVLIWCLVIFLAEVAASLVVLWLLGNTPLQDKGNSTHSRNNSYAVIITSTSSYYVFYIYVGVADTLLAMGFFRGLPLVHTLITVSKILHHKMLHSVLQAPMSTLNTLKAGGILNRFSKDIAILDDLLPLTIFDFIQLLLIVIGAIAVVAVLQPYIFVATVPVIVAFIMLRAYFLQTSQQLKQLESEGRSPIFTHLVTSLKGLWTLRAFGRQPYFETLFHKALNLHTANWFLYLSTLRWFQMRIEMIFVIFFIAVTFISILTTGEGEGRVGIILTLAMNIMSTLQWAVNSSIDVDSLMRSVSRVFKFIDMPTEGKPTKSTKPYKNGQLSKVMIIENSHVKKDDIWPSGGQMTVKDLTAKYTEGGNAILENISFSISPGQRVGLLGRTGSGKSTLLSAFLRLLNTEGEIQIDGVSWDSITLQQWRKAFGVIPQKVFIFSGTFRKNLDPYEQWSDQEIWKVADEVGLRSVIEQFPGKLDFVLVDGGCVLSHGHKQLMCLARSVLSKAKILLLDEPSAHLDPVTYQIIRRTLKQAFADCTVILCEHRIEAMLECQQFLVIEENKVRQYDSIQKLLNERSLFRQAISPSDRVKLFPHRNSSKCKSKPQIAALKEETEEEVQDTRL

**Q.** Which “Ussing chamber short-circuit current, FRT cells” value does the source give for `CC(C)(C)c1cc(C(C)(C)C)c(NC(=O)c2c[nH]c3ccccc3c2=O)cc1O` [VX-770] here?
**A.** In terms of efficacy as a single agent, uHTS159 is roughly equivalent to VX-770.
